Where two headings read alike, the source gives them in different places.
Tests used:
hNSC = assay: MMP assay in human neural stem cells (hNSC); assay type: cell-based; settings: mean±SD of three experiments
HepG2 cells [1] = assay: ROS-Glo hydrogen peroxide (ROS) assay; assay type: cell-based, human; settings: 2 h treatment; mean±SD of three experiments
HepG2 cells [2] = assay: Intracellular ATP content (cell viability) assay; assay type: cell-based, human; settings: for IC50: 40 h treatment, mean±SD of three experiments
[3] = tested on: p53 (p53-bla HCT-116 cells); assay: p53 β-lactamase reporter gene assay; assay type: cell-based, human; settings: 16 h incubation; mean±SD of three experiments
[4] = tested on: Nrf2/ARE (ARE-bla HepG2 cells); assay: ARE β-lactamase reporter gene assay; assay type: cell-based, human
[5] = tested on: isolated rat liver mitochondria; assay: Oxygen consumption, Clark-type oxygen electrode; assay type: biochemical; settings: for I-ADP, % of control (O2 consumption rate): glutamate/malate driven state 3 respiration; for I-ADP, % of control (O2 consumption rate) / I-sub, % of control (O2 consumption rate) / II-ADP, % of control (O2 consumption rate) / II-sub, % of control (O2 consumption rate): isolated rat liver mitochondria; for I-sub, % of control (O2 consumption rate): glutamate/malate driven state 4 respiration; for II-ADP, % of control (O2 consumption rate): succinate-driven state 3 respiration; for II-sub, % of control (O2 consumption rate): succinate-driven state 4 respiration
HepG2 cells [6] = assay: Oxygen consumption, Seahorse XF24 analyzer; assay type: cell-based, human
[7] = tested on: mitochondrial respiratory chain complex I; assay type: biochemical, rat
[8] = target: T1, mitochondrial respiratory chain complex II (Rattus norvegicus, UniProt P21913+Q641Z9+Q6PCT8+Q920L2); assay: Respiratory chain complex II activity; assay type: biochemical; settings: tested up to 100μM
T1 construct: Submitochondrial particles were prepared by subjecting the intact rat mitochondria, isolated as described above, to three successive freeze–thaw cycles; from tissue; host or cells: rat liver mitochondria (submitochondrial particles)
T1 sequence (Q920L2 35-656): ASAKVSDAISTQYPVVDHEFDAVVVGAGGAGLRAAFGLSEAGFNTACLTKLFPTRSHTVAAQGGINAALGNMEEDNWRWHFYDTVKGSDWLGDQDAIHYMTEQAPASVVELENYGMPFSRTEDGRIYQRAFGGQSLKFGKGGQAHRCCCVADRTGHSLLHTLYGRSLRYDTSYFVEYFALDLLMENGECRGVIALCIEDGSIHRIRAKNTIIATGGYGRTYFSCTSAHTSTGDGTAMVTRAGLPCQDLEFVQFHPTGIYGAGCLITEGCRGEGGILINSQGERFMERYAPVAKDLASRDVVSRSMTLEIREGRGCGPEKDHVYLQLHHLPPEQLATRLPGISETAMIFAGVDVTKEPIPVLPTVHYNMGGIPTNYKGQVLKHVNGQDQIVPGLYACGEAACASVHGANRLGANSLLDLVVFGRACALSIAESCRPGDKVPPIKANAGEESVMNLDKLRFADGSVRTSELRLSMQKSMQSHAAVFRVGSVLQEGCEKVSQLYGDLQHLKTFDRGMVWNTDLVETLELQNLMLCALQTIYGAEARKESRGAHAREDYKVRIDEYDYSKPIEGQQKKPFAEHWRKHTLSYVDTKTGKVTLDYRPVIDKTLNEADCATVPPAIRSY
T1 sequence (P21913 31-282): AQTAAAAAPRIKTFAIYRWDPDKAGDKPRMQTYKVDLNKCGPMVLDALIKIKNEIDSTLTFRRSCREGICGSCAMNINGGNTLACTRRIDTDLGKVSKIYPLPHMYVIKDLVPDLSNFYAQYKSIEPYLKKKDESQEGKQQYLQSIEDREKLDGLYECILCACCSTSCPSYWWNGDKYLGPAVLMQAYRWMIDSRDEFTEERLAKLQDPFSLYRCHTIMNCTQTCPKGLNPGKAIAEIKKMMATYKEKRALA
T1 sequence (Q641Z9 1-169): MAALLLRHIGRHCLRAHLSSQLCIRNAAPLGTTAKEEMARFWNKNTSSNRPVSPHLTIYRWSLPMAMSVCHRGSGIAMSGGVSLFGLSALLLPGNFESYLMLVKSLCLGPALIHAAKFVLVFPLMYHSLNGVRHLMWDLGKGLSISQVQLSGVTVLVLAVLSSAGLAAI
T1 sequence (Q6PCT8 57-159): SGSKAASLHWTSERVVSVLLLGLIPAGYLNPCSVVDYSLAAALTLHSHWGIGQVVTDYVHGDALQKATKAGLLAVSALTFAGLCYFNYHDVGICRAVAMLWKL

[9] = tested on: mitochondrial respiratory chain complex III; assay type: biochemical, rat
[10] = tested on: mitochondrial respiratory chain complex IV; assay type: biochemical, rat
[11] = tested on: mitochondrial respiratory chain complex V; assay type: biochemical, rat
[12] = tested on: HeLa cells expressing YFP-Parkin; assay: Parkin translocation assay; assay type: cell-based, human
HepG2 cells [13] = tested on: HepG2 cells
HepG2 cells [14] = settings: cited from earlier work
[15] = tested on: Caenorhabditis elegans strain PE255; assay: In vivo C. elegans ATP status assay
rat primary hepatocytes = assay: MMP assay in rat primary hepatocytes
[16] = tested on: Caenorhabditis elegans (Bristol N2); assay: C. elegans larval development and growth assay

With `CCN1C(=CC=Cc2ccc3ccccc3[n+]2CC)C=Cc2ccccc21.[Cl-]` [Pinacyanol chloride] the IC50 (hNSC; 1 h treatment, fresh re-sourced stocks, read-out: hNSC IC50 (MMP)) was 0.04 ± 0.01 µM, the “hNSC (efficacy) (MMP)” value (hNSC; % of positive control) was −97.1±7.31% and the “ROS (HepG2) EC50” value (HepG2 cells [1]) was “Inactive”. For the same compound, the IC50 (HepG2 cells [2]; 5 mM glucose, read-out: ATP (HepG2, glucose) IC50) was 10.7 ± 6.39 µM, the “ATP (HepG2, glucose) (efficacy)” value (HepG2 cells [2]; 5 mM glucose, % of positive control) was −107±6.73% and the IC50 (HepG2 cells [2]; 10 mM galactose, read-out: ATP (HepG2, galactose) IC50) was 5.88 ± 2.33 µM. The “ATP (HepG2, galactose) (efficacy)” value (HepG2 cells [2]; 10 mM galactose, % of positive control) was −105±4.87%, the “p53 (HCT-116) EC50” value [3] was “Inactive” and the EC50 ([4]; 16 h incubation, mean±SD of three experiments, read-out: ARE (HepG2) EC50) was 1.39 ± 0.95 µM. The “ARE (HepG2) (efficacy)” value ([4]; % of positive control) was 62.8±13.4%, the “I-ADP, % of control (O2 consumption rate)” value ([5]; 0.8 µM) was 88 (40.4) % of control and the “I-sub, % of control (O2 consumption rate)” value ([5]; 0.8 µM) was 113 (12.6) % of control. The “II-ADP, % of control (O2 consumption rate)” value (“II-ADP, % of control” for short) ([5]; 0.8 µM) was 81 (60.9) % of control, the “II-sub, % of control (O2 consumption rate)” value (from here on “II-sub, % of control”) ([5]; 0.8 µM) was 103 (21.3) % of control and the “I-ADP, % of control (O2 consumption rate)” value ([5]; 4 µM) was 57 (26.1) % of control. The “I-sub, % of control (O2 consumption rate)” value ([5]; 4 µM) was 108 (12.1) % of control, the “II-ADP, % of control” value ([5]; 4 µM) was 56 (42.3) % of control and the “II-sub, % of control” value ([5]; 4 µM) was 79 (16.2) % of control. For the same compound, the “I-ADP, % of control (O2 consumption rate)” value ([5]; 20 µM) was 31 (14.2) % of control, the “I-sub, % of control (O2 consumption rate)” value ([5]; 20 µM) was 69 (7.7) % of control and the “II-ADP, % of control” value ([5]; 20 µM) was 35 (26.2) % of control. For the same compound, the “II-sub, % of control” value ([5]; 20 µM) was 69 (14.3) % of control, the “I-ADP, % of control (O2 consumption rate)” value ([5]; 100 µM) was 21 (9.7) % of control and the “I-sub, % of control (O2 consumption rate)” value ([5]; 100 µM) was 76 (11.8) % of control. The “II-ADP, % of control” value ([5]; 100 µM) was 11 (7.6) % of control, the “II-sub, % of control” value ([5]; 100 µM) was 27 (8.5) % of control and the “effect on mitochondrial respiration (in words)” value ([5]; Clark-type oxygen electrode, concentrations up to 100μM) was “slightly milder inhibitory effects on both glutamate/malate-driven respiration and succinate-driven respiration”. The “Potential Mechanism” value ([5]; mitochondrial respiration in isolated rat liver mitochondria, Clark type oxygen electrode, over tested concentrations) was “Inhibitor”, the “effect on oxygen consumption rate, Seahorse (in words)” value (HepG2 cells [6]) was “inhibitory patterns similar to that of rotenone” and the “Activity in oxygen consumption” value (HepG2 cells [6]; Seahorse XF24, HepG2 cells, 25 mM glucose, 1, 4, 16, and 64μM) was “Inhibitor”. The “inhibition effect on Complex I” value ([7]; at 4.0μM) was 23.6%, the “Complex I % inhibition” value ([7]; at 20μM) was 38.3±1.92 at 20μM % and the “Complex II % inhibition (activity call)” value [8] was “Inactive”. For the same compound, the “Complex III % inhibition (activity call)” value [9] was “Inactive”, the “Complex IV % inhibition (activity call)” value [10] was “Inactive” and the “Complex V % inhibition (activity call)” value [11] was “Inactive”. For the same compound, the “Parkin translocation into mitochondria (in words)” value ([12]; 3 h) was “patterns similar to antimycin A and FCCP”, the Parkin recruitment ([12]; HeLa cells stably expressing YFP-Parkin, treated for 2 h) was “Active” and the “HepG2 (efficacy) Glucose (MMP)” value (HepG2 cells [13]; 5 mM glucose, % of positive control, mean±SD of three experiments) was −85.9±3.17%. The “HepG2 (efficacy) Galactose (MMP)” value (HepG2 cells [13]; 10 mM galactose, % of positive control, mean±SD of three experiments) was −78.9±0.48%, the “MMP assays efficacy (%) HepG2” value (HepG2 cells [13]; HepG2 cells, single number from one experiment) was -89% and the IC50 (HepG2 cells [13]; read-out: HepG2 IC50 Galactose (MMP), 10 mM galactose, no glucose, 1 h treatment, mean±SD of three experiments) was 0.06 ± 0.02 µM. For the same compound, the IC50 (HepG2 cells [13]; read-out: HepG2 IC50 Glucose (MMP), 5 mM glucose, 1 h treatment, fresh re-sourced stocks, mean±SD of three experiments) was 0.04 ± 0.01 µM, the IC50 (HepG2 cells [13]; read-out: IC50 in HepG2 cells (MMP, tier-one retest), existing Tox21 10K library stock solutions, Excel Table S1) was 0.02 µM and the IC50 (HepG2 cells [13]; read-out: MMP assays IC50 (µM) HepG2, HepG2 cells, single number from one experiment) was 0.0155 µM. The “MMP assays efficacy (%) qHTS-HepG2” value (HepG2 cells [14]) was -91±3%, the IC50 (HepG2 cells [14]; read-out: MMP assays IC50 (µM), qHTS-HepG2) was 0.01 µM and the “LUM: mean difference in luminescence (ATP content) relative to plate controls” value ([15]; 0.005 µM) was 0.1466. The “LUM: mean difference in luminescence (ATP content) relative to plate controls” value ([15]; 0.01 µM) was 0.1001, the “LUM: mean difference in luminescence (ATP content) relative to plate controls” value ([15]; 0.05 µM) was 0.1404 and the “LUM: mean difference in luminescence (ATP content) relative to plate controls” value ([15]; 0.1 µM) was 0.3228. For the same compound, the “LUM: mean difference in luminescence (ATP content) relative to plate controls” value ([15]; 0.5 µM) was 1.055, the “LUM: mean difference in luminescence (ATP content) relative to plate controls” value ([15]; 1 µM) was -0.08665 and the “LUM: mean difference in luminescence (ATP content) relative to plate controls” value ([15]; 5 µM) was 3.898. The “LUM: mean difference in luminescence (ATP content) relative to plate controls” value ([15]; 10 µM) was 3.595, the “LUM: mean difference in luminescence (ATP content) relative to plate controls” value ([15]; 25 µM) was 3.9673 and the “LUM: mean difference in luminescence (ATP content) relative to plate controls” value ([15]; 50 µM) was 3.294. For the same compound, the “LUM: mean difference in luminescence (ATP content) relative to plate controls” value ([15]; 75 µM) was 3.822, the “LUM: mean difference in luminescence (ATP content) relative to plate controls” value ([15]; 100 µM) was 4.216 and the “effect on ATP content (in words)” value ([15]; 0.5–100μM, 24 h exposure) was “inhibited”. For the same compound, the “LEC LUM: lowest effect concentration for luminescence, a measure of nematode ATP content” value ([15]; C. elegans ATP, JT trend test, Bonferoni correction p<0.05) was 0.25 µM, the “Rat hepatocytes (efficacy) (MMP)” value (rat primary hepatocytes; % of positive control, mean±SD of three experiments) was −75.4±6.24% and the “MMP assays efficacy (%) Rat Hepatocytes” value (rat primary hepatocytes; rat hepatocytes, mean ± SD of three experiments) was -99±26%. The IC50 (rat primary hepatocytes; read-out: IC50 in rat primary hepatocytes (MMP, tier-one retest), existing Tox21 10K library stock solutions, 1-h treatment, Excel Table S1) was 0.04 µM, the IC50 (rat primary hepatocytes; read-out: Rat hepatocytes IC50 (MMP), 1 h treatment, fresh re-sourced stocks, mean±SD of three experiments) was 0.31 ± 0.15 µM and the “EXT: mean difference in nematode size relative to plate controls” value ([16]; 0.005 µM) was 0.5663. For the same compound, the “EXT: mean difference in nematode size relative to plate controls” value ([16]; 0.01 µM) was 0.679, the “EXT: mean difference in nematode size relative to plate controls” value ([16]; 0.05 µM) was 1.058 and the “EXT: mean difference in nematode size relative to plate controls” value ([16]; 0.1 µM) was 0.8774. The “EXT: mean difference in nematode size relative to plate controls” value ([16]; 0.5 µM) was 1.355, the “larval growth effect at 0.5μM” value ([16]; 0.5μM, 48 h exposure) was “severe larval growth arrest” and the “EXT: mean difference in nematode size relative to plate controls” value ([16]; 1 µM) was 1.41. The “EXT: mean difference in nematode size relative to plate controls” value ([16]; 5 µM) was 1.888, the “EXT: mean difference in nematode size relative to plate controls” value ([16]; 10 µM) was 1.689 and the “EXT: mean difference in nematode size relative to plate controls” value ([16]; 50 µM) was 0.7889. The “effect on larval growth (in words)” value ([16]; 0.5–100μM, 48 h exposure) was “inhibited”, the “LEC EXT: lowest effect concentration for extinction, a measure of nematode size” value ([16]; C. elegans larval growth, JT trend test, Bonferoni correction p<0.05) was 0.005 µM and the “inhibitory effect at (concentration) on larval growth in the C. elegans assay” value ([16]; quoted in Discussion) was 0.005 µM.
